Values joined by “and” are separate entries in the source; they are usually repeats but may differ in a detail not shown here. Equal entries are not always repeated. Where two headings read alike, the source gives them in different places.
How the values were obtained:
[1] = test system: panel of eight Candida and Cryptococcus strains; assay: Antifungal MIC, summary over the extended panel; assay type: cell-based; details: whole yeast panel, tested alone
Excerpt: (§1) Yeast strains: Candida albicans (ATCC 90028, NCCLS 11), Cryptococcus neoformans (ATCC 208821, H99 type strain), Candida tropicalis (ATCC 750, type strain), Candida glabrata (ATCC 90030, NCCLS 84) and Cryptococcus deuterogattii (ATCC 32609, type strain) were obtained from the American Type Culture Collection (ATCC). Cryptococcus deuterogattii (CBS 7750), Candida auris (CBS 10913) and Candida auris (CBS 12373) were obtained from the CBS‐KNAW culture collection. The strains were maintained on glycerol/YPD (yeast extract‐peptone dextrose) broth (20:80 v/v) at −80 °C.
Antifungal minimum inhibitory concentration (MIC) assay: The cobalt complexes and antifungal control compounds were serially diluted in 50 μL of Yeast Nitrogen Broth (YNB; BD, Cat No. 233520 supplemented with 2 % glucose and 10 mM ammonium sulfate) two‐fold across the wells of non‐binding surface (NBS) 96‐well plates (Corning; Cat. No. 3641). […]
Yeast strains were cultured from glycerol onto YPD (Becton Dickinson 242720) agar at 30 °C for 72 h. For each strain, a minimum of five single colonies were taken from the agar plate and dissolved in sterile water and adjusted to form a yeast suspension of 1×10^6 to 5×10^6 CFU mL^−1 (as determined by OD530). […]
Growth inhibition of all strains was determined visually where the MIC was recorded as the lowest compound concentration with no visible growth. […]

[2] = test system: C. tropicalis ATCC 750; assay: Antifungal MIC assay (broth microdilution in YNB); assay type: cell-based, Candida tropicalis
Excerpt: as §1
(§2) Antifungal minimum inhibitory concentration (MIC) assay: The cobalt complexes and antifungal control compounds were serially diluted in 50 μL of Yeast Nitrogen Broth (YNB; BD, Cat No. 233520 supplemented with 2 % glucose and 10 mM ammonium sulfate) two‐fold across the wells of non‐binding surface (NBS) 96‐well plates (Corning; Cat. No. 3641). Plates were set up in quadruplicate for each strain tested, and two biological replicates were conducted on separate assay days.
(§3) Yeast strains were cultured from glycerol onto YPD (Becton Dickinson 242720) agar at 30 °C for 72 h. For each strain, a minimum of five single colonies were taken from the agar plate and dissolved in sterile water and adjusted to form a yeast suspension of 1×10^6 to 5×10^6 CFU mL^−1 (as determined by OD530). The suspension was subsequently diluted into YNB media, and added to each well of the compound containing plates, giving a final cell density of 2.5×10^3 CFU mL^−1 and a total volume of 100 μL. Plates were covered and incubated at 35 °C for 36 h without shaking.
(§4) Growth inhibition of all strains was determined visually where the MIC was recorded as the lowest compound concentration with no visible growth. Fluconazole (Sigma F8929), ketoconazole (Sigma K1003) and micafungin (Sigma SML2288) were used as internal positive inhibitor controls for every strain tested.

[3] = test system: human red blood cells; assay: Haemolysis assay; assay type: cell-based; details: 1 h at 37 °C
Method: Haemolysis assay: Human whole blood (Australian Red Cross Blood Service) was washed three times with three volumes of 0.9 % NaCl and resuspended in a concentration of 0.5×10^8 cells mL^−1, determined by manual cell count in a Neubauer haemocytometer. Washed cells were added to compound containing plates (384‐well round bottom polypropylene plates, Corning 3657) for a final volume of 50 μL, shaken for 10 min and incubated for 1 h at 37 °C, without shaking. After incubation, the plates were centrifuged at 1000 g for 10 min to pellet cells and debris, 25 μL of the supernatant was then transferred to reading plates (384‐well flat bottom polystyrene plates, Corning CLS3680), with haemolysis determined by measuring the supernatant absorbance at […] (OD405), using cells without inhibitors as negative control and cells with 1 % Triton X‐100 (Sigma T8787) as positive control. HC10 and HC50 (concentration at which 10 and 50 % haemolysis is induced, respectively) were calculated by curve fitting the inhibition values vs. log(concentration) of four replicates using a sigmoidal dose–response function with variable fitting values for top, bottom and slope using Prism 8. Melittin (Sigma M2272) was used as positive haemolytic control on each plate. Human ethics approval from the University of Queensland Institutional Human Research Ethics Committee was obtained for use of human blood for haemolysis studies (approval number 201400003).

[4] = test system: HEK293 cells; assay: Cytotoxicity assay (resazurin); assay type: cell-based, human; details: 20 h incubation, 0.8–100 μM; read-out: Tox CC50 (cytotoxicity against HEK293 cells)
Method: (§5) Cytotoxicity assay: HEK293 ATCC CRL‐1573 human embryonic kidney cells suspended in DMEM media (Gibco; 11330332) supplemented with 10 % FBS (GE; SH30084.03) and 100 U mL^−1 each penicillin/streptomycin (Invitrogen; 15070063) were counted manually in a Neubauer haemocytometer and seeded into 384‐well, black wall, clear bottom tissue culture plates (Corning; Cat. No. 3712) at 5000 cells per well in a volume of 20 μL. Manually, 20 μL of each compound dilution was plated in duplicate on the cells, for a final concentration range of 0.8–100 μM. The cells were incubated together with the compounds for 20 h at 37 °C, 5 % CO2.
(§6) Cytotoxicity (or cell viability) was measured by fluorescence, ex: 560/10 nm, em: 590/10 nm (F560/590), after addition of 5 μL of 25 μg mL^−1 resazurin ([…]; Sigma R7017) and after further incubation for 3 h at 37 °C in 5 % CO2, using media only as negative control and cells without inhibitors as positive control. CC50 (concentration at 50 % cytotoxicity) were calculated by curve fitting the inhibition values vs. log(concentration) of four replicates using a sigmoidal dose‐response function, with variable fitting values for bottom, top and slope using Prism 8. Tamoxifen (Sigma T5648) was used as internal control on each plate.

[5] = test system: C. neoformans ATCC 208821; assay: Antifungal MIC assay (broth microdilution in YNB); assay type: cell-based, Cryptococcus neoformans
Excerpt: as §1, §2, §3, §4

[6] = Cyclic voltammetry; assay type: physicochemical; details: DMF with 0.1 M TBAP (this work)
Method: Cyclic voltammetry: Electrochemical measurements were carried out in the same manner as reported previously. ^[25b] Experiments were conducted using a Pine WaveNow potentiostat with a three‐electrode setup consisting of a glassy carbon working electrode, a platinum counter electrode, and an Ag wire quasi‐reference electrode. Complexes were dissolved in anhydrous DMF with 0.10 M [Bu4N][PF6] (TBAP) as the supporting electrolyte. Potentials were referenced using an internal standard of the ferrocene/ferricenium couple at 0.45 V vs. the saturated calomel electrode (SCE). ^[33] The sample cell was deoxygenated by bubbling nitrogen gas through the solution prior to analysis and maintained under a blanket of nitrogen during the experiment.

[7] = test system: C. albicans; assay: CO-ADD screening, broth microdilution MIC, yeast reference strain; assay type: cell-based
Excerpt: (§7) As previously mentioned, complexes 1, 2 and 4 were studied in earlier biological assays. […] In our CO‐ADD screening, using broth microdilution (BMD) MIC assays (Table S2), complexes 1–3 were effective at killing drug‐susceptible yeast reference strains of C. albicans and C. neoformans while displaying no antibacterial activity.

[8] = test system: C. neoformans; assay: as above; assay type: cell-based
Excerpt: as §7

[9] = Cytotoxicity assay (resazurin); assay type: cell-based, human; details: human, HEK293 cells (ATCC CRL-1573); 20 h incubation, 0.8–100 μM; read-out: Tox CC50 (cytotoxicity against HEK293 cells)
Method: as §5, §6

[10] = range of MICs, n=8, 35 °C, 36 h, visual, read-out: MIC C. tropicalis ATCC 750
[11] = range of MICs, n=8, 35 °C, 36 h, visual, read-out: MIC C. neoformans ATCC 208821
[12] = Candida tropicalis, ATCC750, Table S1, read-out: MIC Candida tropicalis ATCC 750
[13] = Candida tropicalis, ATCC750, range of MICs, n=8, 35 °C, 36 h, visual, read-out: MIC C. tropicalis ATCC 750
[14] = Cryptococcus neoformans, ATCC208821, Table S1, read-out: MIC Cryptococcus neoformans ATCC 208821
[15] = Cryptococcus neoformans, ATCC208821, range of MICs, n=8, 35 °C, 36 h, visual, read-out: MIC C. neoformans ATCC 208821

| Compound | MIC, no detectable antifungal effect up to [1] | MIC Candida tropicalis ATCC 750 ([2]; Table S1) | MIC [2, 10] | Haem HC10 (concentration at which 10 % haemolysis is reached) [3] | CC50 [4] | MIC Cryptococcus neoformans ATCC 208821 ([5]; Table S1) | MIC [5, 11] | MIC C. tropicalis ATCC 750 ([2]; range of MICs, n=8, 35 °C, 36 h, visual) | First reduction E pc [6] | Second reduction E 1/2 [6] | Antifungal activity, C. albicans reference strain [7] | Antifungal activity, C. neoformans reference strain [8] | MIC [2, 12] | MIC [2, 13] | CC50 at 20 h [9] | MIC [5, 14] | MIC [5, 15] |
| --- | --- | --- | --- | --- | --- | --- | --- | --- | --- | --- | --- | --- | --- | --- | --- | --- | --- |
| O=[N+]([O-])[O-].O=[N+]([O-])[O-].[Co+2] [Co, Co(NO3)2, reference compound] | > 100 µM | > 29.1 µg/mL | >100 µM | >100 µM | > 100 µM | > 29.1 µg/mL | >100 µM |  |  |  |  |  |  |  |  |  |  |
| CC1=[N+]2N=C(N)[S][Co-3]23([n+]2ccc(N(C)C)cc2)([n+]2ccc(N(C)C)cc2)[S]C(N)=N[N+]3=C1C.O=[N+]([O-])[O-] [Compound 3, [Co(ATS)(DMAP)2]NO3] |  | 0.23 to 0.46 µg/mL |  | 73.1 µM and 73.1 ± 20.4 µM | > 100 µM | 0.46 to 0.93 µg/mL |  | 0.39 to 0.78 µM | −0.69 V vs. SCE | −1.17 V vs. SCE |  |  |  |  |  |  |  |
| O=[N+]([O-])[O-].[NH3+][Co-3]123([NH3+])[O]c4c(F)cccc4C=[N+]1c1ccccc1[N+]2=Cc1cccc(F)c1[O]3 [Compound 7, [Co(3F‐salophen)(NH3)2]NO3] |  | 47.8 µg/mL | 100 µM | >100 µM | > 100 µM | 47.8 µg/mL | 100 µM |  | −0.75 V vs. SCE | −1.08 V vs. SCE | neither antibacterial nor antifungal activity | neither antibacterial nor antifungal activity |  |  |  |  |  |
| CC(=N\NC(N)=S)/C(C)=N/NC(N)=S [Compound L1] |  |  |  | >100 µM |  |  |  |  |  |  |  |  | > 23.2 µg/mL | > 100 µM | > 100 µM | > 23.2 µg/mL | > 100 µM |
| CC(/C=C(\O)C(F)(F)F)=N\CC/N=C(C)/C=C(\O)C(F)(F)F [Compound L2] |  |  |  | >100 µM |  |  |  |  |  |  |  |  | > 33.2 µg/mL | > 100 µM | > 100 µM | > 33.2 µg/mL | > 100 µM |
| Oc1c(F)cccc1/C=N/CC/N=C/c1cccc(F)c1O [Compound L3] |  |  |  | >100 µM |  |  |  |  |  |  |  |  | > 30.4 µg/mL | > 100 µM | > 100 µM | > 30.4 µg/mL | 100 µM |
| [Co(3F‐salophen)(3F‐BnNH2)2]NO3 [Compound 6] |  | > 69.4 µg/mL | >100 µM | >100 µM | > 100 µM | 69.4 µg/mL | 100 µM |  | −0.59 V vs. SCE | −1.06 V vs. SCE |  |  |  |  |  |  |  |
